# Assay results reported in patent US12582720B2, “Compound for preventing or treating lipid metabolism-related diseases” (Fudan University, priority 2020, dated 2026).
# What was measured:
# db/db mice = assay: Effect of the compound on db/db mouse; type: in vivo
# Source text: Experimental animals: nineteen-week-old db/db male mice (C57BL/6J-Lepr^db/Lepr^db) were obtained from Shanghai Model Organisms Co., Ltd., and acclimatized for at least 1 week before experiments. The mice had ad libitum access to standard chow and water.
# Normal control: The C57BL/6 male mice fed on standard irradiated chow diet (Shuyishuer Inc. cat. no. D12450J) from Changzhou Shuyishuer Biotechnology Co., Ltd. (Shuyishuer Inc.) were used as the normal control.
# (§1) Mice were randomly divided into 7 groups, wherein 8 mice in each group, and the mice in each group were subjected to intraperitoneal injection to administer: (1) only vehicle (no DMSO) group: 0% DMSO+39% PEG300 (Selleck, cat. no. S6704)+5% Tween-80 (Selleck, cat. no. S6702)+56% distilled water, (2) DMSO group: 1% DMSO+39% PEG300+5% Tween-80+55% H2O (DMSO vehicle), (3) C3 group: Compound 3A was in DMSO vehicle, (4) C4 group: Compound 4A in DMSO vehicle, (5) SIII group: Sudan III DMSO vehicle, (6) GW5074 group: Compound A1 in DMSO vehicle, (7) DP group: Compound A5 in DMSO vehicle. For groups (3)-(7), the compound (30 mg/kg, administration volume 150 μL) was administered through intraperitoneally injection for consecutive 2 weeks, and once a day. The food and water intake were measured with an analytical electronic balance.
# Bodyweight was weighed every day.
# If time permitted, tail vein blood (30-50 μL) was collected every 1-3 days.
# (§2) 24 hours after the time point of the last injection, end point maxillary surface blood sampling was performed on each mouse. All mice were Euthanized by cervical dislocation, and then tissue sample (e.g., liver samples) were obtained and stored in Eppendorf tubes at −80° C. for assay.
# (§3) 12 days after initiation of administration, each mouse was scanned by a minispec nuclear magnetic resonance (NMR) instrument (Bruker LF50 II “Minispec” body composition analyzer, Bruker Optics) that was designed for experimental animals, and based on the measurement of solid and liquid parts of the samples, the body fat and lean body weight were determined by this device.
# (§4) Serum: Tail vein blood samples (30-50 μL) were left to coagulate in […] blood collection tubes (Jiangsu Kangjian Medical Products Co., Ltd., model KJ002) at room temperature without interference, and then centrifuged at 2,000×g for 10 minutes at 4° C. to remove the clot. Supernatant was collected to obtain the serum.
# (§5) Liver: Liver samples were obtained as described in (2). 100 mg of liver tissue was homogenized in 0.9 mL of absolute alcohol under ice-cold conditions, and then centrifuged (2,500 r.p.m/min, 10 min). Supernatant was collected, and then stored at −80° C.
# (§6) The kits were used according to the instruction from manufacturer (TAG: TG kit, cat. no. A110-1-1; TC: T-CHO kit, cat. no. A111-1. FFA: NEFA kit, cat. No. A042-2-1; they were all from Nanjing Jiancheng Bioengineering Institute). TAG, TC and FFA levels in serum and liver samples were determined.
# According to the lipidomic method as described above, the contents of liver total lipid, glycerolipid, sterol lipid, neutral sphingolipid and polar lipid were analyzed. The log 2-fold change (log2 FC) and statistical significance (p-value) relative to the DMSO group were calculated.
# LC3B = LC3B (Homo sapiens, UniProt Q9GZQ8); assay: MST detection of affinity activity with LC3B; type: binding; parameters: His8 (with TEV site) (N); made in house; host or cells: Escherichia coli BL21(DE3)pLysS; details: MST; read-out: Kd (μM), equilibrium dissociation constant between the conjugated compound and LC3B
# Protocol: The recombinant GST-LC3B proteins were prepared and purified, dialyzed into 1×PBS, and then labelled with the red fluorophore with the protein labeling kit RED-NHS (Nanotemper, cat. no. L001).
# The MST experiments were performed using the Monolith NT.115 instrument (NanoTemper Technologies). The reaction buffer contains 20 mM HEPES, pH 7.4, 150 mM NaCl, and the protein concentration was 500 nM. The MST data were collected under 40% infrared laser power and 20% light-emitting diode power. The data were analyzed by Nanotemper software.
# [1] = system: lipid droplets in 3T3-L1 fat precursor cell differentiated fat cells; assay: Lipid droplets in 3T3-L1 fat precursor cell differentiated fat cells; type: cell-based, mouse; details: 3T3-L1 differentiated fat cells, 24 h
# [2] = system: autophagosome-lipid droplet colocalization in MEF cells; assay: Colocalization of autophagosome and lipid droplets in mCherry-LC3B transfected MEF cells; type: cell-based, mouse; details: 5 μM, 3 h, compared to DMSO control
# Protocol: (1) In MEF cells, mCherry-LC3B was expressed by cDNA plasmid transfection.
# (2) OA was added to the culture medium 30 hours after transfection to induce lipid droplets.
# (3) Compounds were added to treat cells 6 hours after induction.
# (4) 3 hours after compounds addition, cells were fixed and BODIPY stained.
# (5) The coverslips laid in the multi-well plates were removed, and imaged with the Zeiss 880 confocal microscope after mounted to observe the aggregation of LC3 puncta around the lipid droplets.
# In MEF cells, mCherry-LC3B was expressed by cDNA plasmid transfection. At 30th hour of overexpression, OA was added into cells for lipid droplet induction. 6 hours later, the compound was added for 3 hours' treatment, and then cells were subjected to immunostaining. […] Lipid droplets (green) were stained with BODIPY stain, and nucleus were indicated with DAPI stain. […] In FIG. 24, the colocalized autophagosome-lipid droplet was marked with circles.
# NASH mice = assay: Effect of the compound on NASH mouse model (CDAHFD); type: in vivo
# Protocol: 15-micrometer cryosections were obtained from the liver (see “BODIPY staining of tissues” and processed for visualization of fibrosis by picro-sirius red staining as described in the literature (Sookoian S et al., Fatty Liver Disease Progresses into Severe NASH when Physiological Mechanisms of Tissue Homeostasis Collapse. Ann Hepatol 2018; 17:182-186.). The liver cryosections were washed with 1×PBS and then incubated at room temperature for 1 hour with the solution containing 0.1% vol/vol Direct Red 80 Direct Red 80 (for staining collagen in red as an indicator for liver fibrosis) and 0.04% Fast Green (Sigma-Aldrich, cat. no. F7258, for general protein staining as a background) in saturated aqueous solution of picric acid (Sigma., cat. no. P6744-1GA). The samples were imaged by using an Olympus inverted fluorescence microscope IX73, and the histological fibrosis images were analyzed by the imageJ software.
# Experimental animals: ten-week-old C57BL/6 male mice were obtained from Hangzhou Ziyuan Inc. The mice had ad libitum access to water and a choline-deficient, L-amino acid-defined, high-fat diet (CDAHFD) containing 60% kcal fat obtained from Changzhou Shuyishuer Inc. for twelve weeks (including the two-week compound-injection period) to generate the non-alcoholic steatohepatitis (NASH) models.
# as §1, §2, §3, §4, §5, §6
# [3] = system: lipid droplets in LC3B knockout HEK293T cells; assay: Lipid droplets in LC3B knockout HEK293T cells; type: cell-based, human; details: 5 μM
# Protocol: The effect of conjugated compounds (Compound 1A, Compound 2A, Compound 3A or Compound 4A at a concentration of 5 μM) on lipid droplets in LC3B knockout HEK293T cells was tested by a method similar to Example 2.
smiles,measurement,setting,value
"O=c1cc(-c2ccccc2)c2c(OCCCCCCCCCCOc3ccc4ccccc4c3/N=N/c3ccc(/N=N/c4ccccc4)cc3)cc(O)cc2o1 [Compound 4A, 7-hydroxy-4-phenyl-5-((10-((1-((E)-(4-((E)-phenyldiazenyl)phenyl)diazenyl)naphthalen-2-yl)oxy)decyl)oxy)-2H-chromen-2-one]",body weight-normalized food intake,db/db mice,marginally significant increase
same,FFA levels in serum and liver,db/db mice; 30 mg/kg ip,significantly reduced
same,body weight-normalized food and water intake,db/db mice; 30 mg/kg ip,no significant reduction
same,weight loss (total body weight),"db/db mice; 30 mg/kg ip once a day, within 2 weeks",about 15%
same,ratio of body fat/lean body weight,"db/db mice; 30 mg/kg ip, 12 days, vs DMSO group",significantly reduced
same,amount and size of liver lipid droplets (BODIPY493/503),"db/db mice; 30 mg/kg ip, 14 days",significantly reduced
same,liver weight,"db/db mice; 30 mg/kg ip, 14 days, vs DMSO group",significantly reduced
same,TAG levels in liver and serum,"db/db mice; 30 mg/kg ip, vs DMSO group",significantly reduced
same,TC levels in liver and serum,"db/db mice; 30 mg/kg ip, vs DMSO group",significantly reduced
same,reduction of liver total lipid concentration (liver lipid level),"db/db mice; absolute quantitative lipidomics, vs DMSO group",41.5±13.9%
same,TAG in liver,db/db mice; lipidomics,significantly reduced
same,"most glycerolipids, sterol lipids and neutral sphingolipids in liver",db/db mice; lipidomics,reduced
same,"other major neutral lipids, cholesteryl ester (ChE) and diglyceride (DG) in liver",db/db mice; lipidomics,slightly reduced
same,"polar lipids, e.g., glycerophospholipids in liver",db/db mice; lipidomics,did not reduce
same,PE and PI,db/db mice; liver lipidomics,unaffected
same,TAG and ChE with different chain carbon numbers or saturated bond numbers,db/db mice; liver lipidomics,all reduced
same,Kd,LC3B,0.39 µM
same,effect of the compound on lipid droplets under the treatment of NH4Cl,[1]; 5 μM + NH4Cl 5 mM,blocked
same,amount of lipid droplets,[1]; 5 μM,could reduce
same,size of lipid droplets,[1]; 5 μM,could change
same,ratio of colocalization of red and green aggregation point (autophagosome-lipid droplet),[2],significantly increased
same,liver weight,NASH mice; 30 mg/kg ip,significantly reduced
same,ratio of body fat/lean body weight,NASH mice; 30 mg/kg ip,significantly reduced
same,serum and liver TAG levels,NASH mice; 30 mg/kg ip,reduced
same,serum and liver TC levels,NASH mice; 30 mg/kg ip,reduced
same,body weight,"NASH mice; 30 mg/kg ip once a day, 2 weeks",significantly reduced
same,liver lipid droplets,"NASH mice; 30 mg/kg ip, 14 days",significantly reduced
same,degree of interstitial fibrosis in liver tissue (picro-sirius staining),"NASH mice; 30 mg/kg ip, 14 days, compared with control compound",significantly reduced
same,reduction of lipid droplets induced by conjugated compounds after knockout of LC3B gene,[3],largely blocked
